Experimental findings from ChEMBL document CHEMBL5120864, “Targeting Enhancer of Zeste Homolog 2 for the Treatment of Hematological Malignancies and Solid Tumors: Candidate Structure-Activity Relationships Insights and Evolution Prospects” (J Med Chem, 2022) are described below.

For orientation: IC50 means the point on the concentration scale where inhibition reaches its midpoint. A lower IC50 goes with greater potency in that assay. As a reminder, the half-life is the time in which the quantity being followed falls by half. A higher half-life goes with slow loss. A word on the solubility: it is how much of the substance goes into solution per volume. A lower solubility goes with little dissolved substance. One may read the inhibition in vivo as the share of the control response that was lost under treatment. A low value points to little suppression. As a reminder, the GI50 is the concentration at which growth is held to half of that of the control. A low value points to greater sensitivity of the cells.

The target in series [1] is T1, Histone-lysine N-methyltransferase EZH2 (Homo sapiens, UniProt Q15910).
T1 sequence (Q15910 whole entry): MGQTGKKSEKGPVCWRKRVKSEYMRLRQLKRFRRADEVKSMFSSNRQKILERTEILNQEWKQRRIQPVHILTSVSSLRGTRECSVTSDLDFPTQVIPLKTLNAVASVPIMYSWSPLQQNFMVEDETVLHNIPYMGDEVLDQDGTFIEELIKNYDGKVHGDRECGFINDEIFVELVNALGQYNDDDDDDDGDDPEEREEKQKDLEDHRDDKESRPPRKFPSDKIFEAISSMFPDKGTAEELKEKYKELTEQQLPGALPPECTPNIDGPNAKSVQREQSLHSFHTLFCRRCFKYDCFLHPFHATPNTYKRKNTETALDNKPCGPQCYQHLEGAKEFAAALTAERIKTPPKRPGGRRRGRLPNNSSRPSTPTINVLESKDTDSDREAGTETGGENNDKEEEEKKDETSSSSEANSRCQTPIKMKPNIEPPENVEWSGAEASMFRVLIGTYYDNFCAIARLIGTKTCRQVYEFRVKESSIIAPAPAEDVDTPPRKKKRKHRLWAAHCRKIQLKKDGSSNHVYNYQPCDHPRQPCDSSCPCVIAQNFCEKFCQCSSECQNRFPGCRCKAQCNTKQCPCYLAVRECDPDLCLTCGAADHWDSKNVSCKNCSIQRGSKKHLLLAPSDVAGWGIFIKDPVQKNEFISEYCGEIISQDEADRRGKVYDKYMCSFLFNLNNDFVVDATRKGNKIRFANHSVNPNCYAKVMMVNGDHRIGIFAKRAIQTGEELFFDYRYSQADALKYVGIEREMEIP
A short description of another series: in vivo. The following applies: rat.
For the next series, the system named is NCI-H1299. The series can be described thus: cells. It is filed as functional, cell-based. The following applies: Homo sapiens.
The next series has as its system NCI-H1975. In words: cells. Format: functional, cell-based. The following applies: Homo sapiens.
Series [2] concerns PC-3. The series can be described thus: cells. Format: functional, cell-based. The conditions noted are these: Homo sapiens.
The next series has as its system A549. In words: cells. Format: functional, cell-based. The conditions noted are these: Homo sapiens.
Series [3] has as its system MDA-MB-231. In words: cells. It is filed as functional, cell-based. The following applies: Homo sapiens, MDA-MB-231, 72 h.
Series [4] in a line: cells. Format: functional, cell-based. The conditions noted are these: Homo sapiens, WSU-FSCCL, 48 h.
Another series relates to BT-474. In words: cells. It is filed as functional, cell-based. The following applies: Homo sapiens, BT-474, 72 h.
Series [5] has as its target T2, Histone-lysine N-methyltransferase EZH1 (Homo sapiens, UniProt Q92800).
T2 sequence (Q92800 whole entry): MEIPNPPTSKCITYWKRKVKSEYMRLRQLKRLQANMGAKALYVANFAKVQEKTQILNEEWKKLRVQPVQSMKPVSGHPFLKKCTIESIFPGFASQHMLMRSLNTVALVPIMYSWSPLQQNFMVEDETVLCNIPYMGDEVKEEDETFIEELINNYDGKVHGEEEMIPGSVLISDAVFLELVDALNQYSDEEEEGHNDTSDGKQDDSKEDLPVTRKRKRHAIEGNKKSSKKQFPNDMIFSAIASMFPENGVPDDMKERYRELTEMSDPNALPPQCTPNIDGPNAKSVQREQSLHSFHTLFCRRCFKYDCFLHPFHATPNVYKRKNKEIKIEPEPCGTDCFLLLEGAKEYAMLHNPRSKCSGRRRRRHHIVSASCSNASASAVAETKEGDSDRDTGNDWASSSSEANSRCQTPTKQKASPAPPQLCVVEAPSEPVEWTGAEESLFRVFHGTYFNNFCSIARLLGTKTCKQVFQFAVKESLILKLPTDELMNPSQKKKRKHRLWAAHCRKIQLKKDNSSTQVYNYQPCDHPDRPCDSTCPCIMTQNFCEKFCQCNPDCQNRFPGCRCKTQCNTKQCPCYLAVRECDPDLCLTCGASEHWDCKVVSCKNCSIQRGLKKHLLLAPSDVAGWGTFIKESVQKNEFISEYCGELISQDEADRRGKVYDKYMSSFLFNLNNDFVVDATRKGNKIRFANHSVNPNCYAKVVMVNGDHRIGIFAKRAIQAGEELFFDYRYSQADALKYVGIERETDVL

In series [6] the test system is SU-DHL-6. In words: cells. It is filed as functional, cell-based. The following applies: Homo sapiens.
For series [7], the system named is Pfeiffer. The series can be described thus: cells. Format: functional, cell-based. The following applies: Homo sapiens.
The subject of series [8] is PC-3. In words: cells. It is filed as functional, cell-based. The conditions noted are these: Homo sapiens, PC-3, 24 h.
Series [9] relates to HepG2. The series can be described thus: cells. It is filed as functional, cell-based. The conditions noted are these: Homo sapiens, HepG2, 24 h.
The test system of series [10] is MCF7. It is filed as functional, Homo sapiens. The conditions noted are these: time 24 hrs.
The subject of series [11] is MCF7. In words: cells. Format: functional, cell-based. The conditions noted are these: Homo sapiens, MCF7, 24 h.
Series [12] relates to HepG2. Format: functional, Homo sapiens. The following applies: time 24 hrs.
For series [13], the system named is PC-3. It is filed as functional, Homo sapiens. The conditions noted are these: time 24 hrs.
In series [14] the test system is MDA-MB-231. The series can be described thus: cells. Format: functional, cell-based. The following applies: Homo sapiens, MDA-MB-231, 96 h.
The test system of the next series is HCT-15. In words: cells. It is filed as functional, cell-based. The conditions noted are these: Homo sapiens, HCT-15, 96 h.
Series [15] concerns the target T3, Protein cereblon/Histone-lysine N-methyltransferase EZH2 (Homo sapiens, UniProt Q15910+Q96SW2). Format: cell-based, OCILY7.
Series [16] concerns the target T3, Protein cereblon/Histone-lysine N-methyltransferase EZH2. It is filed as cell-based, DOHH-2.
The target of series [17] is T2, Histone-lysine N-methyltransferase EZH1. The source holds these as a separate data set.
In series [18] the target is T4, Histone-lysine N-methyltransferase EZH2 (Homo sapiens, UniProt Q15910, Y641F).
T4 sequence (Q15910 whole entry Y641F): as the sequence (Q15910 whole entry) above, with Y641F counted along it
In series [19] the test system is Pfeiffer. The series can be described thus: cells. Format: functional, cell-based. The following applies: Homo sapiens, 96 h.
Series [20] has as its target T1, Histone-lysine N-methyltransferase EZH2. This is another data set of the same source.
Series [21] has as its system SU-DHL-6. In words: cells. Format: functional, cell-based. The conditions noted are these: Homo sapiens, SU-DHL-6, 96 h.
A further series is described as follows: physchem. The conditions noted are these: buffer.
Series [22] addresses T1, Histone-lysine N-methyltransferase EZH2. The source holds these as a separate data set.
The conditions of series [23]: mouse, in vivo.
Series [24] addresses T4, Histone-lysine N-methyltransferase EZH2. This is another data set of the same source.
In series [25] the target is T1, Histone-lysine N-methyltransferase EZH2. This is another data set of the same source.
In series [26] the test system is KARPAS-422. The series can be described thus: animal or person. Format: functional, Homo sapiens. The conditions noted are these: Mus musculus, route po.
Series [27] addresses T1, Histone-lysine N-methyltransferase EZH2. The source holds these as a separate data set.
For series [28], the system named is KARPAS-422. In words: cells. Format: functional. The following applies: Homo sapiens, time 10-15 day.
The test system of series [29] is MCF7. The series can be described thus: cells. It is filed as functional, cell-based. The conditions noted are these: Homo sapiens, MCF7, 96 h.
Another series concerns ZR-75-1. In words: cells. Format: functional, cell-based. The following applies: Homo sapiens, ZR-75-1, 96 h.
In series [30] the target is T2, Histone-lysine N-methyltransferase EZH1. This is another data set of the same source.
The nature of series [31]: cells. The following applies: Homo sapiens, MDA-MB-23.
The test system of another series is MDA-MB-468. The series can be described thus: cells. The following applies: Homo sapiens.
The test system of series [32] is MCF7. The series can be described thus: cells. The conditions noted are these: Homo sapiens.

Values after ≈ are worked out from the molar mass of the structure shown.

T3 sequence (Q15910 whole entry): as the sequence (Q15910 whole entry) above
T3 sequence (Q96SW2 whole entry): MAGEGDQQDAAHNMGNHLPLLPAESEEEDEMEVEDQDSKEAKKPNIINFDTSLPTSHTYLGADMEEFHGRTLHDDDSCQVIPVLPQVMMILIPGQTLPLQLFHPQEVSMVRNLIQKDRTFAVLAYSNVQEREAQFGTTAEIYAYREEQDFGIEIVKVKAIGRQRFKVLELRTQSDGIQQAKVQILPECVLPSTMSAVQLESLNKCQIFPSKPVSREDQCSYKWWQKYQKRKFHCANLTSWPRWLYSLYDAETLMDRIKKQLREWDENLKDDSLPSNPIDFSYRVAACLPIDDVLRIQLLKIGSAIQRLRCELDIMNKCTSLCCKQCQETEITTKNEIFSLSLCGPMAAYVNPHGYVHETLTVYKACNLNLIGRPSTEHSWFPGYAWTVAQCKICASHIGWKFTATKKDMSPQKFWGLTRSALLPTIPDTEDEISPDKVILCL

In the case of `Nc1nccc2c1ncn2[C@@H]1C=C(CO)[C@@H](O)[C@H]1O`, the half-maximal inhibitory concentration (IC50) in [1] was found to be 0.08 µM; in the series on NCI-H1299, 0.21 µM; with NCI-H1975, 0.08 µM; in the series with PC-3 [2] it was 0.19 µM; with A549, 0.24 µM. Also, the half-life in the series “in vivo” was 1.1 h.
Regarding `COc1cc2nc(N3CCN(C)CC3)nc(NC3CCN(Cc4ccccc4)CC3)c2cc1OC`, the IC50 with MDA-MB-231 [3] stood at 4.3 µM; in the series “cells [4]”, 3.41 µM; in the series with BT-474, 2.1 µM.
Regarding `CCC(CC)n1ccc2c(C(=O)NCc3c(C)cc(C)[nH]c3=O)cc(C#N)cc21`, the IC50 in [5] was 0.013 µM.
In the case of `CCN(c1cc(-c2ccc(CN3CCN(C)CC3)cc2)cc(C(=O)NCc2c3c(c(C)[nH]c2=O)CCCC3)c1C)C1CCOCC1`, the results for the half-inhibitory concentration (IC50) in the series with SU-DHL-6 [6] and with Pfeiffer [7] were 16 µM and 0.0125 µM, respectively.
In the case of `COc1ccc(C2SCCC(=O)N2Nc2nc3ccccc3[nH]2)cc1` (centres undefined), the half-maximal inhibitory concentration (IC50) in the series with PC-3 [8] worked out at 27 µM; in the series with HepG2 [9], 8.95 µM; with MCF7 [11] it was 16.6 µM. Moreover, the “inhibition (INH)” value with MCF7 [10] stood at 50.8%; in the series with HepG2 [12], 64%; with PC-3 [13], 36.7%.
`COc1cccc2nc(N3CCCN(C)CC3)cc(NC3CCN(C)CC3)c12`: the values for the IC50 in the series with MDA-MB-231 [14] and with HCT-15 were 2.45 µM and 7.6 µM, respectively.
Take `CCN(c1cc(-c2ccc(CN3CCN(C(=O)CCCCCCCNc4cccc5c4C(=O)N(C4CCC(=O)NC4=O)C5=O)CC3)cc2)cc(C(=O)NCc2c(C)cc(C)[nH]c2=O)c1C)C1CCOCC1` (centres undefined): the values for the IC50 in series [15] and in series [16] were 0.06 µM and 0.1 µM, respectively.
For `CCN(c1cc(-c2ccc(CN3CCN(C)CC3)cc2)cc(C(=O)NCc2c3c(c(C)[nH]c2=O)CCCC3)c1C)C1CCCCC1`, the IC50 in series [17] worked out at 0.136 µM; in series [18], 0.182 µM; in the series on Pfeiffer [19], 1.43 µM; in series [20], 0.0098 µM; with SU-DHL-6 [21], 2.01 µM.
In the series “physchem”, `CCN(c1cc(-c2ccccc2)cc(C(=O)NCc2c3c(c(C)[nH]c2=O)CCCC3)c1C)C1CCOCC1` had a solubility of 0.185 mg/mL (≈ 361 µM).
Turning to `COc1cc(C)[nH]c(=O)c1CNC(=O)c1c(C)n(C(C)C2CCN(C)C(C(F)(F)F)C2)c2ccccc12` (centres undefined), the values for the IC50 in series [22], in series [24] and in [25] were less than 0.1 µM, less than 0.1 µM and less than 400 µM, respectively. For the same compound, in series [23], the CL turned out to be 55 µL/min/mg.
Regarding `COC1CN([C@H]2CC[C@H]([C@@H](C)c3scc(C(=O)NCc4c(C)cc(C)[nH]c4=O)c3C)CC2)C1`, the IC50 in series [22] was found to be 0.00143 µM; in series [24] it was 0.00093 µM. In the series on KARPAS-422 [26], this compound gave an inhibition in vivo at 50 mg/kg of 53%.
In series [27], `C=CC(=O)Nc1cc(-c2ccc(N3CCNCC3)nc2)cc(C(=O)NCc2c(CC)cc(C)[nH]c2=O)c1C` registered an IC50 of 0.047 µM.
For `CCN1CCN(c2ccc(-c3cc(C(=O)NCc4c(C)cc(C)[nH]c4=O)c(C)c4c3O[C@](C)(CN3CCOCC3)O4)cn2)CC1`, in the series on KARPAS-422 [28], halving of growth (GI50) required 0.21 µM.
On to `CCN(c1cc(-c2ccc(N3CCN(C)CC3)cc2)cc(C(=O)NCc2c3c(c(C)[nH]c2=O)CCCC3)c1C)C1CCOCC1`, for which the IC50 in series [18] amounted to 0.015 µM; in the series with MCF7 [29], 0.99 µM; in the series with ZR-75-1 it was 0.089 µM; in series [30] it was 0.081 µM.
`O=C(c1cc(Cc2n[nH]c(=O)c3ccccc23)ccc1F)N1CCN(C(=O)C2CC2)CC1` [OLAPARIB]: the values for the IC50 in “cells [31]”, in the series on MDA-MB-468 and in the series with MCF7 [32] were 36.9 µM, 35.6 µM and more than 50 µM, respectively.
